Test results: patent publication US20260109694A1, “HETEROCYCLIC COMPOUNDS AND USES THEREOF” (Kumquat Biosciences Inc., priority 2023, published 2026)

How the values were obtained:
PTP1B = molecular target: T1, PTP1B (Homo sapiens, UniProt P18031); test: Phosphatase activity assay (DiFMUP substrate); format: biochemical; details: value bin printed in column head
T1 sequence (P18031 1-435): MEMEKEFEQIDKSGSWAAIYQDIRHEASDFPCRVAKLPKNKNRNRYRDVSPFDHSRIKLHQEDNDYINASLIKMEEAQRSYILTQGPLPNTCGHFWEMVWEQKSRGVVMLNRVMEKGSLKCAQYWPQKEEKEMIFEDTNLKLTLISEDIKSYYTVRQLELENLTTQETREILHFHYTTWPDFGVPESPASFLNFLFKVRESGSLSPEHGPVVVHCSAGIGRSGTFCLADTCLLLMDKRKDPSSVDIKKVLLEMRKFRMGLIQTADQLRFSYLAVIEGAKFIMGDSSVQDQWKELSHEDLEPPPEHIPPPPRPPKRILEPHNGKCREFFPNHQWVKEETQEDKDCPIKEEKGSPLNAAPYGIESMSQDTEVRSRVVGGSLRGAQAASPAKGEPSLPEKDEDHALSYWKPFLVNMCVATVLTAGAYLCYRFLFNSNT
How it was run: (§1)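 Each enzyme (PTPN2 at 0.025 ng/ul) was premixed ~2 min with a 10-point inhibitor series in 50 mM HEPES pH 7.5, 150 mM NaCl, 0.5 mM EDTA, 1 mM DTT, 0.001% Tween-20 at room temperature. DiFMUP was added at each enzyme's Km (~45 μM for PTPN2). DiFMU fluorescence was followed 15–30 min, and IC50 came from 4-parameter fits of initial rates.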

PTPN2 = molecular target: T2, PTPN2 (Homo sapiens, UniProt P17706); test: Phosphatase activity assay (DiFMUP substrate); format: biochemical; details: value bin printed in column head
T2 sequence (P17706 1-415): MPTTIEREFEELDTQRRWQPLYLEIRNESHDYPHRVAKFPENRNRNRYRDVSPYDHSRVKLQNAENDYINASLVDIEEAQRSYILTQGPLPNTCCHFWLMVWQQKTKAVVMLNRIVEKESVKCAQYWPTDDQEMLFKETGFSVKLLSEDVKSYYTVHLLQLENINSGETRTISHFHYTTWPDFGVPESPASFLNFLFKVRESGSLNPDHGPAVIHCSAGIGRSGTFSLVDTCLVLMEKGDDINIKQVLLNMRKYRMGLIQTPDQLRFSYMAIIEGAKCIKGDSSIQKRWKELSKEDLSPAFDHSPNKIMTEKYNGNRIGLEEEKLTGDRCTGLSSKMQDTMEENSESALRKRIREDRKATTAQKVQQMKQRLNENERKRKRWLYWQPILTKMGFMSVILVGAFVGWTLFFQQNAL
How it was run: as §1

SMILES | IC50 (PTP1B) [µM] | IC50 (PTPN2) [µM]
O=C1CN(c2c(O)ccc(C3=CC(CO)CC3)c2F)S(=O)(=O)N1 (stereo not shown) [Compound 131, 5-(2-fluoro-6-hydroxy-3-(3-(hydroxymethyl)cyclopent-1-en-1-yl)phenyl)-1,2,5-thiadiazolidin-3-one 1,1-dioxide] | ≤ 1 | ≤ 1
O=C1CN(c2c(O)ccc(C3=CC(CCC(F)(F)F)NC3)c2F)S(=O)(=O)N1 (stereo not shown) [Compound 133, 5-(2-fluoro-6-hydroxy-3-(5-(3,3,3-trifluoropropyl)-2,5-dihydro-1H-pyrrol-3-yl)phenyl)-1,2,5-thiadiazolidin-3-one 1,1-dioxide] | ≤ 1 | ≤ 1
CC1(C)CC1CCC1C=C(c2ccc(O)c(N3CC(=O)NS3(=O)=O)c2F)CN1 (stereo not shown) [Compound 115, 5-(3-(5-(2-(2,2-dimethylcyclopropyl)ethyl)-2,5-dihydro-1H-pyrrol-3-yl)-2-fluoro-6-hydroxyphenyl)-1,2,5-thiadiazolidin-3-one 1,1-dioxide] | ≤ 1 | ≤ 1
O=C1CN(c2c(O)ccc(C(=O)NC3CNC3)c2F)S(=O)(=O)N1 [Compound 124, N-(azetidin-3-yl)-3-(1,1-dioxido-4-oxo-1,2,5-thiadiazolidin-2-yl)-2-fluoro-4-hydroxybenzamide] | > 1 | > 1
O=C1CN(c2c(O)ccc(C3=C[C@H](CCC4CC4)NC3)c2F)S(=O)(=O)N1 [Compound 130, (S)-5-(3-(5-(2-cyclopropylethyl)-2,5-dihydro-1H-pyrrol-3-yl)-2-fluoro-6-hydroxyphenyl)-1,2,5-thiadiazolidin-3-one 1,1-dioxide] | ≤ 1 | ≤ 1
O=C1CN(c2c(O)cc(C3=CCNC3)cc2F)S(=O)(=O)N1 [Compound 128, 5-(4-(2,5-dihydro-1H-pyrrol-3-yl)-2-fluoro-6-hydroxyphenyl)-1,2,5-thiadiazolidin-3-one 1,1-dioxide] | ≤ 1 | ≤ 1
O=C1CN(c2c(O)ccc(C3=C[C@@H](CCC4CC4)NC3)c2F)S(=O)(=O)N1 [Compound 113, (R)-5-(3-(5-(2-cyclopropylethyl)-2,5-dihydro-1H-pyrrol-3-yl)-2-fluoro-6-hydroxyphenyl)-1,2,5-thiadiazolidin-3-one 1,1-dioxide] | ≤ 1 | ≤ 1
CC(OC(=O)C1CCCC1)OC(=O)N1CC(c2ccc(O)c(N3CC(=O)NS3(=O)=O)c2F)=C[C@H]1CCC1CCC1 (stereo partly drawn) [Compound 163, 1-((cyclopentanecarbonyl)oxy)ethyl (2R)-2-(2-cyclobutylethyl)-4-(3-(1,1-dioxido-4-oxo-1,2,5-thiadiazolidin-2-yl)-2-fluoro-4-hydroxyphenyl)-2,5-dihydro-1H-pyrrole-1-carboxylate] | ≤ 1 | ≤ 1
N#CCCCC1C=C(c2ccc(O)c(N3CC(=O)NS3(=O)=O)c2F)CN1 (stereo not shown) [Compound 119, 4-(4-(3-(1,1-dioxido-4-oxo-1,2,5-thiadiazolidin-2-yl)-2-fluoro-4-hydroxyphenyl)-2,5-dihydro-1H-pyrrol-2-yl)butanenitrile] | ≤ 1 | ≤ 1
O=C1CN(c2c(O)ccc(C3=CC(CC4CCC4)NC3)c2F)S(=O)(=O)N1 (stereo not shown) [Compound 126, 5-(3-(5-(cyclobutylmethyl)-2,5-dihydro-1H-pyrrol-3-yl)-2-fluoro-6-hydroxyphenyl)-1,2,5-thiadiazolidin-3-one 1,1-dioxide] | ≤ 1 | ≤ 1
CC(C)[C@H](N)C(=O)NCC(=O)N1CC(c2ccc(O)c(N3CC(=O)NS3(=O)=O)c2F)=C[C@H]1CCC1CCC1 [Compound 144, (S)-2-amino-N-(2-((R)-2-(2-cyclobutylethyl)-4-(3-(1,1-dioxido-4-oxo-1,2,5-thiadiazolidin-2-yl)-2-fluoro-4-hydroxyphenyl)-2,5-dihydro-1H-pyrrol-1-yl)-2-oxoethyl)-3-methylbutanamide] | ≤ 1 | ≤ 1
